Assay results from patent US20180092908A1, “SMALL MOLECULE OXIDIZERS OF PDI AND THEIR USE” (THE TRUSTEES OF COLUMBIA UNIVERSITY IN THE CITY OF NEW YORK, priority 2015, published 2018).
Like-named read-outs stand apart in the source and are kept apart here.

Legend:
[1] = Mouse microsome stability assay; type: in vitro ADME; details: for half-life at 0.5 μM: mouse, liver microsomes, pH 7.4, mouse liver microsomes
Description: At 0, 5, 15, 30 and 45 minute intervals, an aliquot was taken and quenched with acetonitrile (ACN) containing internal standard. No-cofactor controls at 45 minutes were prepared. Following completion of the experimentation, the samples were analyzed by LC-MS/MS. […] C=initial×exp (−k×t). Intrinsic clearance (CLint) was calculated as liver clearance from the half-life using the following equation: CLint=k×(ml incubation/0.5 mg protein)×(52.5 mg protein/g liver). Results were reported as peak area ratios of analyte to internal standard. The intrinsic clearance (CLint) was determined from the first order elimination constant by non-linear regression. The microsome stability assay, plasma stability assay, and plasma protein binding assay were each performed by Alliance Pharma, Inc. (Malvern, Pa.).

[2] = system: PC12 mHTT^Q103 cells; test: Rescue of PC12 cells from mHTT^Q103 induced cell death (Alamar blue viability); type: cell-based; details: Rattus norvegicus
[3] = target: T1, human catalytic PDI A1 a domain (PDIa) (Homo sapiens, UniProt P07237); test: Isothermal titration calorimetry (ITC) binding to PDIa; details: 400 μM LOC14 into 40 μM oxidized PDIa, compared to reduced PDIa
T1 construct: made in house; host or cells: Escherichia coli BL21-Gold (DE3)
T1 sequence (P07237 with tags, fused parts or gaps): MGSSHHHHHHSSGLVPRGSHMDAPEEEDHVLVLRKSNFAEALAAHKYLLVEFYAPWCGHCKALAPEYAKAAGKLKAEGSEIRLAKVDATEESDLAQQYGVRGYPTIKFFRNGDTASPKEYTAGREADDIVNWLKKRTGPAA

[4] = Single-dose pharmacokinetic study (BBB penetration); type: in vivo; details: single-dose 20 mg/kg, intravenously or orally, mice
Description: LOC14 administered via (FIG. 17A) intravenous or (FIG. 17B) oral route to wild-type C57BL/6j mice at 20 mg/kg. The concentration of compound in the brain tissue and plasma is shown for each individual mouse (represented by dots). The horizontal lines represent the mean±SD (n=3).
Showing promising in vitro metabolic properties, LOC14 was tested in a single-dose pharmacokinetic (PK) study. This was a pilot study to evaluate the ability of LOC14 to traverse the blood-brain barrier (BBB). In this study, LOC14 was administered via two routes, intravenously (FIG. 17A) or orally (FIG. 17B), at a single-dose of 20 mg/kg to wild-type C57BL/6j mice.

[5] = Mouse plasma protein binding assay; type: in vitro ADME; details: mouse; plasma, compound 2000 ng/mL, mean±SD (n=3)
Description: (§1) A test compound at the concentration of 2000 ng/mL in plasma was added into the sample chamber, and a dialysis buffer phosphate-buffered saline (PBS) was added into the buffer chamber, covering the unit with sealing tape and incubating for 4 hours at 37° C. at approximately 100 rpm on an orbital shaker. The incubation samples were taken from both plasma and buffer chamber at the end of the incubation, and then samples were analyzed by LC-MS/MS. Protein binding and free fraction percentage were determined using peak area ratio of analyte to internal standard. Fraction bound percent was calculated as: % Bound=100*(Cplasma−CPBS)/Cplasma. The fraction recovered percent was calculated as: % Recovery=(VPBS*CPBS+Vplasma*Cplasma)/(Vplasma*Cspike) where VPBS is Volume of PBS, Vplasma is Volume of Plasma, CPBS is Drug concentration in PBS (Analyte/IS peak area ratio), Cplasma is Drug concentration in plasma (Analyte/IS peak area ratio), Cspike is Drug concentration in spiked plasma (Analyte/IS peak area ratio).

[6] = system: plasma proteins; test: Mouse plasma protein binding assay; type: in vitro ADME; details: mouse plasma
Description: as §1

[7] = mouse liver microsomes, compound 0.5 μM

O=C(C1CC1)N1CCN(Cn2sc3ccccc3c2=O)CC1 [LOC14, 2-((4-(cyclopropanecarbonyl)piperazin-1-yl)methyl)benzo[d]isothiazol-3(2H)-one]
intrinsic clearance value ([1]; mouse liver microsomes): less than 0.5 ml/min/g
Elimination rate constant (k) [1, 7]: 0.0016
Intrinsic Clearance (CLint), mL/min/g liver [1, 7]: 0.17 mL/min/g liver
half-life at 0.5 μM ([1]; compound 0.5 μM, read-out: Half-life (t1/2)): 7.31 h
half-life at 0.5 μM ([1]; read-out: half-life): > 1.5 h
EC50 ([2]; PC-12, 48 h, read-out: EC50, rescue of PC12 mHTT^Q103 cells): 500 nM
EC50 ([2]; PC-12, read-out: Cell Viability Assay EC50): 102 nM
binding affinity to oxidized PDIa [3]: loss in binding affinity
blood-brain barrier penetration [4]: penetrated the BBB
tolerability [4]: well tolerated
recovery at 4 h, 2000 ng/mL [5]: 113.8 ± 0.76%
binding to the plasma proteins [6]: low binding
